Assay results taken from patent publication US20100215653A1, “METHODS OF TREATING NEOPLASTIC, AUTOIMMUNE AND INFLAMMATORY DISEASES” (Seattle Genetics, Inc., priority 2006, published 2010).

Tests used:
[1] = tested on: primary human macrophages; assay: Macrophage migration in response to chemoattractants (CytoSelect Cell Migration Assay); assay type: cell-based; conditions: 10% human serum or 20% conditioned media from RPMI 8226 cells; p<0.05 (FIG. 21)
Protocol: The migration of macrophages in response to challenge with plating media containing 10% human serum, 20% conditioned tumor cell media, or 50 ng/ml TGF-β, VEGF, TNF-α, or IFN-γ was evaluated using the CytoSelect Cell Migration Assay (Cell Biolabs, San Diego, Calif.). […] The study was stopped 18 hours later and migration was evaluated after dissociation of the cells from the membrane followed by detection with Cyquant GR dye.
The migration of macrophages in response to challenge with plating media containing 10% human serum or 20% conditioned tumor cell media was evaluated using the CytoSelect Cell Migration Assay (Cell Biolabs, San Diego, Calif.). […] The studies were stopped 18 h later and migration was evaluated after dissociation of the cells from the membrane followed by detection with Cyquant GR dye.

[2] = Effector function (ADCC or CDC activity), data not shown; assay type: cell-based
CD33 [3] = molecular target: T1, CD33 (Homo sapiens, UniProt P20138); assay: CD33 tyrosine phosphorylation (CD33 immunoprecipitation, anti-phosphotyrosine Western blot); assay type: cell-based; parameters: endogenous in cells; host or cells: HL-60, U937; primary human CD14+ monocytes and PBMC-derived macrophages; conditions: HL-60 AML cells (FIG. 16)
T1 sequence (P20138 18-364): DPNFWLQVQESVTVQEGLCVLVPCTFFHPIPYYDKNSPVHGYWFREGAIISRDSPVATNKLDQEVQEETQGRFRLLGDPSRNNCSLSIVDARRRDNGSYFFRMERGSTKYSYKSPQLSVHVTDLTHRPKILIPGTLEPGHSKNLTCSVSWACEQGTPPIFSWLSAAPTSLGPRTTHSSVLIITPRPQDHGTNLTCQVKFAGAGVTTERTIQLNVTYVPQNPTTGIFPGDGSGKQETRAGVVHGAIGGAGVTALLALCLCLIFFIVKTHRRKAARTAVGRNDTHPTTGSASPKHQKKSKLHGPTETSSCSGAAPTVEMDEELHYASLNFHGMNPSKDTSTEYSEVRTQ
Protocol: CD33-positive cell lines were treated with anti-CD33 antibodies (lintuzumab and certain commercially available antibodies). Cell extracts were prepared and CD33 was immunoprecipitated using an anti-CD33 antibody (MY9 clone; Beckman Coulter, Calif.). Western blotting was performed with an anti-phosphotyrosine antibody (4G10; Upstate Biotechnologies, Inc., Lake Placid, N.Y.).
(§1) Deglycosylation was confirmed by CE-SDS. […] Cell lysates were prepared and CD33 immunoprecipitated using an anti-CD33 rabbit polyclonal antibody (Santa Cruz Biotechnology, Santa Cruz, Calif.) prior to SDS PAGE gel electrophoresis. Western blot analyses of these samples were performed using the 4G10 phosphotyrosine antibody (Upstate Biotechnology, Temucula, Calif.), anti-CD33 antibody (NovoCastra, Norwell, Mass.), and anti-SHP-1 antibody (Calbiochem, San Diego, Calif.). Control lysate for SHP-1 was prepared from a B cell lymphoma cell line.

CD33 [4] = molecular target: T1, CD33; assay: Recruitment of SHP-1 / SHP-2 / Syk to CD33 (CD33 immunoprecipitation, Western blot); assay type: cell-based; parameters: endogenous in cells; host or cells: HL-60, U937; primary human CD14+ monocytes and PBMC-derived macrophages; conditions: HL-60 and monocytes; 30 minutes (FIG. 16)
Protocol: To determine whether the humanized M195 antibody also recruits SHP phosphatases, HL-60 cells were treated with soluble or cross-linked anti-CD33 antibodies. Cell extracts were prepared and CD33 was immunoprecipitated with an anti-CD33 antibody (MY9 clone). Western blotting was performed with an anti-SHP-1 antibody (sc-287; Santa Cruz Biotechnology, Inc., Santa Cruz, Calif.).
as §1, with “To prepare deglycosylated SGN-33, the antibody was treated with PN-glycosidase F (New England BioLabs, Ipswich, Mass.). Deglycosylation” for “Deglycosylation”

HL-60 cells = assay: HL-60 disseminated AML model in mice; assay type: in vivo; conditions: low doses of cytarabine alone (FIG. 22)
Protocol: Mice were implanted with an AML cell line, HL-60, as follows: 5 million HL-60 cells were injected intravenously. The mice were treated with lintuzumab (10 mg/kg, q4dx4, ip), cytarabine (1 mg/kg, 5 mg/kg or 25 mg/kg, q1dx10, ip; or 50 mg/kg or 100 mg/kg, q2dx5, ip) or lintuzumab with cytarabine (dosed as described previously). Treatment began on day one. Referring to FIG. 22, the control mice or mice treated with placebo (0.9% saline) were removed from the study by day 80, due to tumor progression.
To confirm the data of the in vitro study, mice were implanted with an AML cell line, HL-60, as follows: 5 million HL-60 cells were injected intravenously. […] Treatment began on day one. Referring to FIG. 24, the control mice were removed from the study by about day 60 due to tumor progression. Mice treated with lenalidomide were removed from study by about day 90 for similar reasons.
The MDR-negative HL60 cell line and the MDR-positive HEL9217 and TF1-α cell lines were used. […] Disease symptoms typically developed between about 35 and about 80 days, and included hind limb paralysis, scruffy coat, weight loss, palpable tumors, and/or tumor masses in bone, peritoneal cavity, or soft tissues. Human CD33+ tumor cells were detected in the blood, bone marrow, and lymph nodes of the majority of the mice by flow cytometry (FIG. 25). Solid tumors associated with bone or soft tissues were found in 20 to 60% of the mice.

[5] = tested on: AML tumor cells (KG-1 HEL9217, and TF1α); assay: ADCC, 51Cr release assay with NK effector cells; assay type: cell-based, human; conditions: NK cells pre-treated 2 to 3 h with drug before addition to target cells (FIG. 23)
Protocol: Target AML tumor cells (KG-1 HEL9217, and TF1α) were labeled with Na^51CrO4 and mixed with enriched CD16^+ effector (NK) cells, prepared using PBMCs from normal donors. The effector to target cell ratio was 10:1. […] Macrophages were labeled with CD11b−FITC or CD14-FITC antibody. Flow cytometric analyses of dual labeled (PKH67+CD11b+ or PKH67+CD14+) cells was used to determine specific uptake (phagocytosis). […] Media were collected 18 h later and analyzed by ELISA for IL-8 or MCP-1.
Viable NK cells were pre-treated for 2 to 3 h with lenalidomide or thalidomide (as described in FIG. 23) prior to addition to target cells.

HEL 92.1.7 cells = assay: Complement-dependent cytotoxicity (CDC) activity; assay type: cell-based, human; conditions: HEL 92.1.7 cells preincubated 2 hours with drug before HuM195
Protocol: The purpose of this study was to determine whether the cytotoxic effects of an anti-CD33 antibody (HuM195) on AML cells could be enhanced by combination treatment with chemotherapeutic drugs. An MDR^+, CD33-positive AML cell line (HEL 92.1.7) was either untreated or preincubated with the indicated concentrations of thalidomide or 5-azacytidine for two hours prior to exposure to the anti-CD33 Ab. Cytotoxic activity was measured using a complement-dependent cytotoxicity (CDC) activity.

[6] = molecular target: CD33 on human cells (AML cell lines HL60, KG-1, HEL9217, TF1-alpha, U937; primary human monocytes and macrophages) (human) (UniProt P20138); assay: apparent Kd, saturation binding by flow cytometry on HL60 cells
Sequence of CD33 on human cells (AML cell lines HL60, KG-1, HEL9217, TF1-alpha, U937; primary human monocytes and macrophages) (human) (P20138 18-364): as above

[7] = molecular target: CD33 on human cells (AML cell lines HL60, KG-1, HEL9217, TF1-alpha, U937; primary human monocytes and macrophages) (human) (UniProt P20138); assay: apparent Kd, saturation binding by flow cytometry on KG-1 cells
[8] = molecular target: CD33 on human cells (AML cell lines HL60, KG-1, HEL9217, TF1-alpha, U937; primary human monocytes and macrophages) (human) (UniProt P20138); assay: apparent Kd, saturation binding by flow cytometry on HEL9217 cells
[9] = molecular target: CD33 on human cells (AML cell lines HL60, KG-1, HEL9217, TF1-alpha, U937; primary human monocytes and macrophages) (human) (UniProt P20138); assay: apparent Kd, saturation binding by flow cytometry on TF1-alpha cells

## deglycosylated SGN-33: SGN-33 treated with PN-glycosidase F; does not interact with Fc receptors
[1]
  macrophage migration: significantly reduced the migration
[2]
  effector function, including ADCC or CDC activity: did not mediate effector function
CD33 [3]
  phosphorylation of CD33: induced phosphorylation of CD33
CD33 [4]
  recruitment of SHP-1 to the CD33 complex: resulted in recruitment of SHP-1 to the CD33 complex

## Nc1ccn([C@@H]2O[C@H](CO)[C@@H](O)[C@@H]2O)c(=O)n1 [cytarabine, reference compound]
HL-60 cells
  percent survival rates compared to untreated controls: increasing percent survival rates

## Nc1cccc2c1CN(C1CCC(=O)NC1=O)C2=O (stereo not shown) [lenalidomide, reference compound]
[5]
  effect on SGN-33 mediated ADCC: enhanced SGN-33 mediated ADCC

## O=C1CCC(N2C(=O)c3ccccc3C2=O)C(=O)N1 (stereo not shown) [thalidomide, reference compound]
HEL 92.1.7 cells
  sensitivity to HuM195-mediated CDC activity after preincubation with drug: enhanced the sensitivity
[5]
  effect on SGN-33 mediated ADCC: enhanced SGN-33 mediated ADCC

## SGN-33, humanized M195 anti-CD33 antibody
[6]
  Kd: 0.123 nM
[7]
  Kd: 0.07 nM
[8]
  Kd: 0.144 nM
[9]
  Kd: 0.099 nM

## Nc1ncn([C@@H]2O[C@H](CO)[C@@H](O)[C@H]2O)c(=O)n1 [5-azacytidine]
HEL 92.1.7 cells
  sensitivity to HuM195-mediated CDC activity after preincubation with drug: enhanced the sensitivity
